Experimental data as given in US20230416330A1, “Optimized GIP Peptide Analogues” (Antag Therapeutics ApS, priority 2019, published 2023).
Read-outs that look alike come from different tables or passages of the source. Starred links: 1 amine or outer side, 2 acyl side, 3 side chain; linkers in the order of their positions; H or OH if unused. Non-standard residues stand in square brackets, D forms with d. Residues, ends and D or L forms follow the SMILES beside them. Groups on a side chain read outwards from the residue. *: point of attachment. C18 diacid = O=C(O)CCCCCCCCCCCCCCCCC(=O)*; C16 diacid = O=C(O)CCCCCCCCCCCCCCC(=O)*; γGlu = O=C(O)[C@H](CCC(=O)[*:2])N[*:1]; Nle = CCCC[C@H](N)C(=O)O; AEEA = NCCOCCOCC(=O)O; Aib = CC(C)(N)C(=O)O

Key:
[1] = Physical stability: fibril formation in Thioflavin T (ThT) assay with agitation; type: physicochemical; settings: 25° C., agitation
Procedure, shortened: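 Read-out is continuous ThT fluorescence at 486 nm, with lag time taken where signal reaches 10% between pre- and post-transition baselines. Filtered samples (1, 5, 7.5 or 15 mg/ml; pH 7.4 phosphate buffer or NaOH-adjusted water) were stressed at 25° C. by orbital rotation at 300 rpm with one silica bead per well.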

human GIP receptor = molecular target: T1, human GIP receptor (Homo sapiens, UniProt P48546); experiment: cAMP assay Alternative 1 (CisBio assay), GIPR antagonism; type: cell-based; settings: for cAMP antagonism % inhib: % inhibition of Emax
T1 construct: host or cells: HEK-293 cells, transient transfection (Lipofectamine 2000), cDNA in pCMV-Script vector
T1 sequence (P48546 22-466): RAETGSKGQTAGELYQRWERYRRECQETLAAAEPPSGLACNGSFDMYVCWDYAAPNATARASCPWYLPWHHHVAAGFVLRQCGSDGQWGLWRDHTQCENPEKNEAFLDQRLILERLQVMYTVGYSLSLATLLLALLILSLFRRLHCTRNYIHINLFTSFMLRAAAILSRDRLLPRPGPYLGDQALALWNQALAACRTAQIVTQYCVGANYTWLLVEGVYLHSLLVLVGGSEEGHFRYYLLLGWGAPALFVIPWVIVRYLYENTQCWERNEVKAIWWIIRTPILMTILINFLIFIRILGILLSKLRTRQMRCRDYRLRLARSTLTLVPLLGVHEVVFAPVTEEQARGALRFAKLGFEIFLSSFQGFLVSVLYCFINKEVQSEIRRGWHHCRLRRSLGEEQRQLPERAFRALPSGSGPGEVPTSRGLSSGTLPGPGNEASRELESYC
Procedure, shortened: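 HEK293 cells transiently transfected with hGIPR, compounds diluted in HBSS/HEPES/pluronic/casein with 500 uM IBMX; decrease in intracellular cAMP read by HTRF (665/620 nm) and converted via cAMP standard curve. pIC50 from four-parameter fit; agonism tested separately after 30 min at 37° C.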

[2] = Solubility by visual inspection of peptide solutions; type: physicochemical
Procedure, shortened: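 Solubility scored by eye: clear, colorless appearance after gentle mixing. Samples prepared at 1, 5, 7.5 or 15 mg/ml in either pH 7.4 water (NaOH-adjusted) or 50 mM sodium phosphate buffer, pH 7.4.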

Structure (SMILES)	Avr lag time (h) ([1]; 1 mg/ml, TFA, Phosphate (7.4))	cAMP antagonism % inhib (human GIP receptor; Table 2B) [%]	Visual appearance ([2]; 1 mg/ml, TFA, Phosphate (7.4))	Avr lag time (h) ([1]; 5 mg/ml, Na, MilliQ (8))	Avr lag time (h) ([1]; 7.5 mg/ml, Na, MilliQ (8))	Avr lag time (h) ([1]; 15 mg/ml, Na, MilliQ (8))	IC50 (human GIP receptor) [nM]	Visual appearance ([2]; 7.5 mg/ml, Na, MilliQ (8))	Visual appearance ([2]; 15 mg/ml, Na, MilliQ (8))	IC50 (human GIP receptor; Table 2B, HEK-293 cells transiently expressing hGIPR, agonist GIP1-42 at EC50, read-out: cAMP antagonism) [nM]
CCCC[C@H](NC(=O)[C@H](C)NC(=O)[C@@H](NC(=O)[C@H](CO)NC(=O)[C@H](Cc1ccc(O)cc1)NC(=O)[C@H](CCC(=O)O)NC(=O)[C@H](CO)NC(=O)[C@@H](NC(=O)[C@H](Cc1ccccc1)NC(=O)[C@@H](NC(=O)CNC(=O)[C@@H](N)CCC(=O)O)[C@@H](C)O)[C@@H](C)CC)[C@@H](C)CC)C(=O)N[C@@H](CCC(=O)O)C(=O)N[C@@H](CCCCN)C(=O)N[C@H](C(=O)N[C@@H](CCCCNC(=O)COCCOCCNC(=O)COCCOCCNC(=O)CC[C@H](NC(=O)CCCCCCCCCCCCCCCCC(=O)O)C(=O)O)C(=O)N[C@@H](CCC(N)=O)C(=O)N[C@@H](CCC(N)=O)C(=O)N[C@@H](CCC(=O)O)C(=O)N[C@@H](Cc1ccccc1)C(=O)N[C@H](C(=O)N[C@@H](CCC(=O)O)C(=O)N[C@@H](Cc1c[nH]c2ccccc12)C(=O)N[C@@H](CC(C)C)C(=O)N[C@@H](CC(C)C)C(=O)N[C@@H](C)C(=O)N[C@@H](CCC(N)=O)C(=O)N[C@@H](CCCCN)C(=O)N1CCC[C@H]1C(=O)N[C@@H](CO)C(=O)N[C@@H](CO)C(=O)NCC(=O)N[C@@H](C)C(=O)N1CCC[C@H]1C(=O)N1CCC[C@H]1C(=O)N1CCC[C@H]1C(=O)N[C@@H](CO)C(=O)O)C(C)C)[C@@H](C)CC [AT694] (H-EGTFISEYSIA[Nle]EKIK([AEEA-AEEA-γGlu-C18 diacid])QQEFVEWLLAQKPSSGAPPPS-OH; N-terminus assumed)	fnd (Fnd = fibrils not detected within experiment time (96 hours) with agitation.)	88	Clear							
CC[C@H](C)[C@H](NC(=O)[C@H](CCCCN)NC(=O)[C@H](CC(=O)O)NC(=O)[C@H](CCSC)NC(=O)C(C)(C)NC(=O)[C@@H](NC(=O)[C@H](CO)NC(=O)[C@H](Cc1ccc(O)cc1)NC(=O)[C@H](CC(=O)O)NC(=O)[C@H](CO)NC(=O)[C@@H](NC(=O)[C@H](Cc1ccccc1)NC(=O)[C@@H](NC(=O)CNC(=O)[C@@H](N)CCC(=O)O)[C@@H](C)O)[C@@H](C)CC)[C@@H](C)CC)C(=O)N[C@@H](CCCCNC(=O)CCCCCCCCCCCCCCC(=O)O)C(=O)N[C@@H](CCC(N)=O)C(=O)N[C@@H](CCC(N)=O)C(=O)N[C@@H](CC(=O)O)C(=O)N[C@@H](Cc1ccccc1)C(=O)N[C@H](C(=O)N[C@@H](CCC(=O)O)C(=O)N[C@@H](Cc1c[nH]c2ccccc12)C(=O)N[C@@H](CC(C)C)C(=O)N[C@@H](CC(C)C)C(=O)N[C@@H](C)C(=O)N[C@@H](CCC(N)=O)C(=O)N[C@@H](CCCCN)C(=O)N1CCC[C@H]1C(=O)N[C@@H](CO)C(=O)N[C@@H](CO)C(=O)NCC(=O)N[C@@H](C)C(=O)N1CCC[C@H]1C(=O)N1CCC[C@H]1C(=O)N1CCC[C@H]1C(=O)N[C@@H](CO)C(=O)O)C(C)C [AT665] (H-EGTFISDYSI[Aib]MDKIK(C16 diacid)QQDFVEWLLAQKPSSGAPPPS-OH; N-terminus assumed)	fnd (Fnd = fibrils not detected within experiment time (96 hours) with agitation.)	88	Clear	fnd (Fnd = fibrils not detected within experiment time (96 hours) with agitation.)	fnd (Fnd = fibrils not detected within experiment time (96 hours) with agitation.)	fnd (Fnd = fibrils not detected within experiment time (96 hours) with agitation.)	0.15	Clear	Clear	
CCCC[C@H](NC(=O)C(C)(C)NC(=O)[C@@H](NC(=O)[C@H](CO)NC(=O)[C@H](Cc1ccc(O)cc1)NC(=O)[C@H](CCC(=O)O)NC(=O)[C@H](CO)NC(=O)[C@@H](NC(=O)[C@H](Cc1ccccc1)NC(=O)[C@@H](NC(=O)CNC(=O)[C@@H](N)CCC(=O)O)[C@@H](C)O)[C@@H](C)CC)[C@@H](C)CC)C(=O)N[C@@H](CCC(=O)O)C(=O)N[C@@H](CCCCN)C(=O)N[C@H](C(=O)N[C@@H](CCCCNC(=O)CCCCCCCCCCCCCCC(=O)O)C(=O)N[C@@H](CCC(N)=O)C(=O)N[C@@H](CCC(N)=O)C(=O)N[C@@H](CCC(=O)O)C(=O)N[C@@H](Cc1ccccc1)C(=O)N[C@H](C(=O)N[C@@H](CCC(=O)O)C(=O)N[C@@H](Cc1c[nH]c2ccccc12)C(=O)N[C@@H](CC(C)C)C(=O)N[C@@H](CC(C)C)C(=O)N[C@@H](C)C(=O)N[C@@H](CCC(N)=O)C(=O)N[C@@H](CCCCN)C(=O)N1CCC[C@H]1C(=O)N[C@@H](CO)C(=O)N[C@@H](CO)C(=O)NCC(=O)N[C@@H](C)C(=O)N1CCC[C@H]1C(=O)N1CCC[C@H]1C(=O)N1CCC[C@H]1C(=O)N[C@@H](CO)C(=O)O)C(C)C)[C@@H](C)CC [AT674] (H-EGTFISEYSI[Aib][Nle]EKIK(C16 diacid)QQEFVEWLLAQKPSSGAPPPS-OH; N-terminus assumed)	fnd (Fnd = fibrils not detected within experiment time (96 hours) with agitation.)	93	Clear							0.447
CC[C@H](C)[C@H](NC(=O)[C@H](CO)NC(=O)[C@H](Cc1ccc(O)cc1)NC(=O)[C@H](CCC(=O)O)NC(=O)[C@H](CO)NC(=O)[C@@H](NC(=O)[C@H](Cc1ccccc1)NC(=O)[C@@H](NC(=O)CNC(=O)[C@@H](N)CCC(=O)O)[C@@H](C)O)[C@@H](C)CC)C(=O)N[C@@H](C)C(=O)N[C@@H](CC(C)C)C(=O)N[C@@H](CCC(=O)O)C(=O)N[C@@H](CCCCN)C(=O)N[C@H](C(=O)N[C@@H](CCCCNC(=O)COCCOCCNC(=O)COCCOCCNC(=O)CC[C@H](NC(=O)CCCCCCCCCCCCCCCCC(=O)O)C(=O)O)C(=O)N[C@@H](CCC(N)=O)C(=O)N[C@@H](CCC(N)=O)C(=O)N[C@@H](CCC(=O)O)C(=O)N[C@@H](Cc1ccccc1)C(=O)N[C@H](C(=O)N[C@@H](CCC(=O)O)C(=O)N[C@@H](Cc1c[nH]c2ccccc12)C(=O)N[C@@H](CC(C)C)C(=O)N[C@@H](CC(C)C)C(=O)N[C@@H](C)C(=O)N[C@@H](CCC(N)=O)C(=O)N[C@@H](CCCCN)C(=O)N1CCC[C@H]1C(=O)N[C@@H](CO)C(=O)N[C@@H](CO)C(=O)NCC(=O)N[C@@H](C)C(=O)N1CCC[C@H]1C(=O)N1CCC[C@H]1C(=O)N1CCC[C@H]1C(=O)N[C@@H](CO)C(=O)O)C(C)C)[C@@H](C)CC [AT693] (H-EGTFISEYSIALEKIK([AEEA-AEEA-γGlu-C18 diacid])QQEFVEWLLAQKPSSGAPPPS-OH; N-terminus assumed)	fnd (Fnd = fibrils not detected within experiment time (96 hours) with agitation.)	96	Clear							
CC[C@H](C)[C@H](NC(=O)[C@H](CCCCN)NC(=O)[C@H](CC(=O)O)NC(=O)[C@H](CC(C)C)NC(=O)C(C)(C)NC(=O)[C@@H](NC(=O)[C@H](CO)NC(=O)[C@H](Cc1ccc(O)cc1)NC(=O)[C@H](CC(=O)O)NC(=O)[C@H](CO)NC(=O)[C@@H](NC(=O)[C@H](Cc1ccccc1)NC(=O)[C@@H](NC(=O)CNC(=O)[C@@H](N)CCC(=O)O)[C@@H](C)O)[C@@H](C)CC)[C@@H](C)CC)C(=O)N[C@@H](CCCCNC(=O)COCCOCCNC(=O)COCCOCCNC(=O)CC[C@H](NC(=O)CCCCCCCCCCCCCCCCC(=O)O)C(=O)O)C(=O)N[C@@H](CCC(N)=O)C(=O)N[C@@H](CCC(N)=O)C(=O)N[C@@H](CC(=O)O)C(=O)N[C@@H](Cc1ccccc1)C(=O)N[C@H](C(=O)N[C@@H](CCC(=O)O)C(=O)N[C@@H](Cc1c[nH]c2ccccc12)C(=O)N[C@@H](CC(C)C)C(=O)N[C@@H](CC(C)C)C(=O)N[C@@H](C)C(=O)N[C@@H](CCC(N)=O)C(=O)N[C@@H](CCCCN)C(=O)N1CCC[C@H]1C(=O)N[C@@H](CO)C(=O)N[C@@H](CO)C(=O)NCC(=O)N[C@@H](C)C(=O)N1CCC[C@H]1C(=O)N1CCC[C@H]1C(=O)N1CCC[C@H]1C(=O)N[C@@H](CO)C(=O)O)C(C)C [AT685] (H-EGTFISDYSI[Aib]LDKIK([AEEA-AEEA-γGlu-C18 diacid])QQDFVEWLLAQKPSSGAPPPS-OH; N-terminus assumed)	fnd (Fnd = fibrils not detected within experiment time (96 hours) with agitation.)	83	Clear							
